Laboratory results published in ChEMBL document CHEMBL4813981, “Synthesis and in vitro antibacterial activity of new aminothiazole-oximepiperidone cephalosporins” (2021).
Converted amounts (≈) assume the structure as drawn.

How the values were obtained:
Enterococcus faecalis [1] = experiment: Antibacterial activity against Enterococcus faecalis ATCC 51299 assessed as reduction in bacterial growth; assay type: functional
Acinetobacter baumannii [2] = experiment: Antibacterial activity against Multidrug resistant Acinetobacter baumannii AR 15-2 assessed as reduction in bacterial growth; assay type: functional
Enterococcus faecalis [3] = experiment: Antibacterial activity against Enterococcus faecalis ATCC 51299 assessed as reduction in bacterial growth in the presence of Avibactam; assay type: functional
Escherichia coli [4] = experiment: Antibacterial activity against Escherichia coli ATCC 25922 assessed as reduction in bacterial growth in the presence of Avibactam; assay type: functional
Escherichia coli [5] = experiment: Antibacterial activity against Escherichia coli 15-5 overexpressing extended spectrum beta-lactamases assessed as reduction in bacterial growth in the presence of Avibactam; assay type: functional
Klebsiella pneumoniae [6] = experiment: Antibacterial activity against Multidrug resistant Klebsiella pneumoniae KR 15-1 assessed as reduction in bacterial growth in the presence of Avibactam; assay type: functional
Klebsiella pneumoniae [7] = experiment: Antibacterial activity against Multidrug resistant Klebsiella pneumoniae KR 15-2 assessed as reduction in bacterial growth in the presence of Avibactam; assay type: functional
Acinetobacter baumannii [8] = experiment: Antibacterial activity against Carbapenem- resistant Acinetobacter baumannii 17-6 assessed as reduction in bacterial growth in the presence of Avibactam; assay type: functional
Klebsiella pneumoniae [9] = experiment: Antibacterial activity against Carbapenem- resistant Klebsiella pneumoniae KR 15-4 assessed as reduction in bacterial growth in the presence of Avibactam; assay type: functional
Klebsiella pneumoniae [10] = experiment: Antibacterial activity against Carbapenem- resistant Klebsiella pneumoniae KR 15-6 assessed as reduction in bacterial growth in the presence of Avibactam; assay type: functional
Klebsiella pneumoniae [11] = experiment: Antibacterial activity against Carbapenem- resistant Klebsiella pneumoniae KR 15-9 assessed as reduction in bacterial growth in the presence of Avibactam; assay type: functional
Klebsiella pneumoniae [12] = experiment: Antibacterial activity against ESBLs positive Carbapenem-sensitive Klebsiella pneumoniae 17-6 assessed as reduction in bacterial growth in the presence of Avibactam; assay type: functional
Klebsiella pneumoniae [13] = experiment: Antibacterial activity against ESBLs negative Carbapenem-sensitive Klebsiella pneumoniae 17-18 assessed as reduction in bacterial growth in the presence of Avibactam; assay type: functional
Escherichia coli [14] = experiment: Antibacterial activity against ESBLs positive Carbapenem-sensitive Escherichia coli 17-6 assessed as reduction in bacterial growth in the presence of Avibactam; assay type: functional
Escherichia coli [15] = experiment: Antibacterial activity against ESBLs positive Carbapenem-sensitive Escherichia coli 17-10 assessed as reduction in bacterial growth in the presence of Avibactam; assay type: functional
Escherichia coli [16] = experiment: Antibacterial activity against ESBLs positive Carbapenem-sensitive Escherichia coli 17-15 assessed as reduction in bacterial growth in the presence of Avibactam; assay type: functional
Escherichia coli [17] = experiment: Antibacterial activity against ESBLs negative Carbapenem-sensitive Escherichia coli 17-7 assessed as reduction in bacterial growth in the presence of Avibactam; assay type: functional
Enterobacter cloacae [18] = experiment: Antibacterial activity against Enterobacter cloacae 17-5 assessed as reduction in bacterial growth in the presence of Avibactam; assay type: functional
Enterobacter cloacae [19] = experiment: Antibacterial activity against Enterobacter cloacae 17-8 assessed as reduction in bacterial growth in the presence of Avibactam; assay type: functional
Klebsiella aerogenes [20] = experiment: Antibacterial activity against Enterobacter aerogenes 17-5 assessed as reduction in bacterial growth in the presence of Avibactam; assay type: functional
Klebsiella aerogenes [21] = experiment: Antibacterial activity against Enterobacter aerogenes 15-7 assessed as reduction in bacterial growth in the presence of Avibactam; assay type: functional
Pseudomonas aeruginosa [22] = experiment: Antibacterial activity against Carbapenem- sensitive Pseudomonas aeruginosa 17-7 assessed as reduction in bacterial growth in the presence of Avibactam; assay type: functional
Pseudomonas aeruginosa [23] = experiment: Antibacterial activity against Carbapenem- sensitive Pseudomonas aeruginosa 17-9 assessed as reduction in bacterial growth in the presence of Avibactam; assay type: functional
Pseudomonas aeruginosa [24] = experiment: Antibacterial activity against Carbapenem- sensitive Pseudomonas aeruginosa 17-29 assessed as reduction in bacterial growth in the presence of Avibactam; assay type: functional
Acinetobacter baumannii [25] = experiment: Bactericidal activity against Carbapenem- resistant Acinetobacter baumannii 17-6 assessed as reduction in bacterial growth; assay type: functional
Klebsiella pneumoniae [26] = experiment: Bactericidal activity against Carbapenem- resistant Klebsiella pneumoniae KR 15-7 assessed as reduction in bacterial growth; assay type: functional
Escherichia coli [27] = experiment: Bactericidal activity against ESBLs positive Carbapenem-sensitive Escherichia coli 17-18 assessed as reduction in bacterial growth; assay type: functional
Klebsiella aerogenes [28] = experiment: Bactericidal activity against Enterobacter aerogenes 17-1 assessed as reduction in bacterial growth; assay type: functional
Klebsiella aerogenes [29] = experiment: Bactericidal activity against Enterobacter aerogenes 15-4 assessed as reduction in bacterial growth; assay type: functional
Escherichia coli [30] = experiment: Bactericidal activity against Escherichia coli ATCC 25922 assessed as reduction in bacterial growth; assay type: functional
Escherichia coli [31] = experiment: Bactericidal activity against Escherichia coli NCTC 13353 assessed as reduction in bacterial growth; assay type: functional
Acinetobacter baumannii [32] = experiment: Bactericidal activity against Carbapenem- resistant Acinetobacter baumannii 17-2 assessed as reduction in bacterial growth in the presence of avibactam; assay type: functional
Acinetobacter baumannii [33] = experiment: Bactericidal activity against Carbapenem- resistant Acinetobacter baumannii 17-3 assessed as reduction in bacterial growth in the presence of avibactam; assay type: functional
Acinetobacter baumannii [34] = experiment: Bactericidal activity against Carbapenem- resistant Acinetobacter baumannii 17-11 assessed as reduction in bacterial growth in the presence of avibactam; assay type: functional
Klebsiella pneumoniae [35] = experiment: Bactericidal activity against Carbapenem- resistant Klebsiella pneumoniae KR 15-7 assessed as reduction in bacterial growth in the presence of avibactam; assay type: functional
Pseudomonas aeruginosa [36] = experiment: Bactericidal activity against Carbapenem- resistant Pseudomonas aeruginosa 17-1 assessed as reduction in bacterial growth in the presence of avibactam; assay type: functional
Pseudomonas aeruginosa [37] = experiment: Bactericidal activity against Carbapenem- resistant Pseudomonas aeruginosa 17-8 assessed as reduction in bacterial growth in the presence of avibactam; assay type: functional
Klebsiella pneumoniae [38] = experiment: Bactericidal activity against ESBLs positive Carbapenem-sensitive Klebsiella pneumoniae 17-2 assessed as reduction in bacterial growth in the presence of avibactam; assay type: functional
Escherichia coli [39] = experiment: Bactericidal activity against ESBLs negative carbapenem-sensitive Escherichia coli 17-7 assessed as reduction in bacterial growth in the presence of avibactam; assay type: functional
Enterobacter cloacae [40] = experiment: Bactericidal activity against Enterobacter cloacae 17-3 assessed as reduction in bacterial growth in the presence of avibactam; assay type: functional
Enterobacter cloacae [41] = experiment: Bactericidal activity against Enterobacter cloacae 17-8 assessed as reduction in bacterial growth in the presence of avibactam; assay type: functional
Klebsiella aerogenes [42] = experiment: Bactericidal activity against Enterobacter aerogenes 15-4 assessed as reduction in bacterial growth in the presence of avibactam; assay type: functional
Pseudomonas aeruginosa [43] = experiment: Bactericidal activity against carbapenem-sensitive Pseudomonas aeruginosa 17-26 assessed as reduction in bacterial growth in the presence of avibactam; assay type: functional
Klebsiella pneumoniae [44] = experiment: Bactericidal activity against Klebsiella pneumoniae ATCC BAA-1705 assessed as reduction in bacterial growth in the presence of avibactam; assay type: functional
Klebsiella pneumoniae [45] = experiment: Antibacterial activity against Carbapenem- resistant Klebsiella pneumoniae KR 15-5 assessed as reduction in bacterial growth
Klebsiella pneumoniae [46] = experiment: Antibacterial activity against ESBLs positive Carbapenem-sensitive Klebsiella pneumoniae 17-12 assessed as reduction in bacterial growth
Escherichia coli [47] = experiment: Antibacterial activity against ESBLs negative Carbapenem-sensitive Escherichia coli 17-20 assessed as reduction in bacterial growth; assay type: functional
Klebsiella aerogenes [48] = experiment: Antibacterial activity against Enterobacter aerogenes 15-4 assessed as reduction in bacterial growth; assay type: functional

## CC(C)(O/N=C(\C(=O)N[C@@H]1C(=O)N2C(C(=O)[O-])=C(C[n+]3ccccc3)CS[C@H]12)c1csc(N)n1)C(=O)O [CEFTAZIDIME]
Enterococcus faecalis [1]
  MIC: > 64 µg/mL
Acinetobacter baumannii [2]
  MIC: > 64 µg/mL
Enterococcus faecalis [3]
  MIC: > 64 µg/mL
Escherichia coli [4]
  MIC: 0.125 µg/mL
Escherichia coli [5]
  MIC: 1 µg/mL
Klebsiella pneumoniae [6]
  MIC: 2 µg/mL
Klebsiella pneumoniae [7]
  MIC: 2 µg/mL
Acinetobacter baumannii [8]
  MIC: 8 µg/mL
Klebsiella pneumoniae [9]
  MIC: 2 µg/mL
Klebsiella pneumoniae [10]
  MIC: 1 µg/mL
Klebsiella pneumoniae [11]
  MIC: 2 µg/mL
Klebsiella pneumoniae [12]
  MIC: 0.5 µg/mL
Klebsiella pneumoniae [13]
  MIC: 0.125 µg/mL
Escherichia coli [14]
  MIC: 0.5 µg/mL
Escherichia coli [15]
  MIC: 0.5 µg/mL
Escherichia coli [16]
  MIC: 0.5 µg/mL
Escherichia coli [17]
  MIC: 0.125 µg/mL
Enterobacter cloacae [18]
  MIC: 1 µg/mL
Enterobacter cloacae [19]
  MIC: 0.125 µg/mL
Klebsiella aerogenes [20]
  MIC: 0.5 µg/mL
Klebsiella aerogenes [21]
  MIC: 1 µg/mL
Pseudomonas aeruginosa [22]
  MIC: 0.125 µg/mL
Pseudomonas aeruginosa [23]
  MIC: 0.125 µg/mL
Pseudomonas aeruginosa [24]
  MIC: 0.5 µg/mL
Acinetobacter baumannii [25]
  MBC: > 64 µg/mL
Klebsiella pneumoniae [26]
  MBC: > 64 µg/mL
Escherichia coli [27]
  MBC: 2 µg/mL (≈ 3.66 µM)
Klebsiella aerogenes [28]
  MBC: 16 µg/mL (≈ 29.3 µM)
Klebsiella aerogenes [29]
  MBC: 0.5 µg/mL (≈ 0.915 µM)
Escherichia coli [30]
  MBC: 0.5 µg/mL (≈ 0.915 µM)
Escherichia coli [31]
  MBC: > 64 µg/mL
Acinetobacter baumannii [32]
  MBC: 8 µg/mL
Acinetobacter baumannii [33]
  MBC: 8 µg/mL
Acinetobacter baumannii [34]
  MBC: 32 µg/mL
Klebsiella pneumoniae [35]
  MBC: 2 µg/mL
Pseudomonas aeruginosa [36]
  MBC: 16 µg/mL
Pseudomonas aeruginosa [37]
  MBC: 16 µg/mL
Klebsiella pneumoniae [38]
  MBC: 0.25 µg/mL
Escherichia coli [39]
  MBC: 0.125 µg/mL
Enterobacter cloacae [40]
  MBC: 0.25 µg/mL
Enterobacter cloacae [41]
  MBC: 1 µg/mL
Klebsiella aerogenes [42]
  MBC: 0.25 µg/mL
Pseudomonas aeruginosa [43]
  MBC: 2 µg/mL
Klebsiella pneumoniae [44]
  MBC: 8 µg/mL
Klebsiella pneumoniae [45]
  MIC: > 64 µg/mL
Klebsiella pneumoniae [46]
  MIC: 4 µg/mL (≈ 7.32 µM)

## Nc1nc(/C(=N/OCc2cc(=O)c(O)cn2O)C(=O)N[C@@H]2C(=O)N3C(C(=O)O)=CCS[C@H]23)cs1
Enterococcus faecalis [1]
  MIC: > 64 µg/mL
Acinetobacter baumannii [2]
  MIC: > 64 µg/mL
Enterococcus faecalis [3]
  MIC: > 64 µg/mL
Escherichia coli [4]
  MIC: 0.25 µg/mL
Escherichia coli [5]
  MIC: 0.5 µg/mL
Klebsiella pneumoniae [6]
  MIC: 1 µg/mL
Klebsiella pneumoniae [7]
  MIC: 1 µg/mL
Escherichia coli [47]
  MIC: 0.25 µg/mL (≈ 0.492 µM)
Klebsiella aerogenes [48]
  MIC: 4 µg/mL (≈ 7.87 µM)
Acinetobacter baumannii [8]
  MIC: 16 µg/mL
Klebsiella pneumoniae [9]
  MIC: 4 µg/mL
Klebsiella pneumoniae [10]
  MIC: 0.5 µg/mL
Klebsiella pneumoniae [11]
  MIC: 2 µg/mL
Klebsiella pneumoniae [12]
  MIC: 0.25 µg/mL
Klebsiella pneumoniae [13]
  MIC: 0.06 µg/mL
Escherichia coli [14]
  MIC: 0.5 µg/mL
Escherichia coli [15]
  MIC: 0.06 µg/mL
Escherichia coli [16]
  MIC: 0.25 µg/mL
Escherichia coli [17]
  MIC: 0.5 µg/mL
Enterobacter cloacae [18]
  MIC: 4 µg/mL
Enterobacter cloacae [19]
  MIC: 2 µg/mL
Klebsiella aerogenes [20]
  MIC: 2 µg/mL
Klebsiella aerogenes [21]
  MIC: 2 µg/mL
Pseudomonas aeruginosa [22]
  MIC: 0.25 µg/mL
Pseudomonas aeruginosa [23]
  MIC: 2 µg/mL
Pseudomonas aeruginosa [24]
  MIC: 1 µg/mL
Acinetobacter baumannii [25]
  MBC: > 64 µg/mL
Klebsiella pneumoniae [26]
  MBC: > 64 µg/mL
Escherichia coli [27]
  MBC: 32 µg/mL (≈ 62.9 µM)
Klebsiella aerogenes [28]
  MBC: 64 µg/mL (≈ 126 µM)
Klebsiella aerogenes [29]
  MBC: 4 µg/mL (≈ 7.87 µM)
Escherichia coli [30]
  MBC: > 8 µg/mL
Escherichia coli [31]
  MBC: > 64 µg/mL
Acinetobacter baumannii [32]
  MBC: 16 µg/mL
Acinetobacter baumannii [33]
  MBC: 16 µg/mL
Acinetobacter baumannii [34]
  MBC: > 64 µg/mL
Klebsiella pneumoniae [35]
  MBC: 2 µg/mL
Pseudomonas aeruginosa [36]
  MBC: 64 µg/mL
Pseudomonas aeruginosa [37]
  MBC: 32 µg/mL
Klebsiella pneumoniae [38]
  MBC: 0.125 µg/mL
Escherichia coli [39]
  MBC: 1 µg/mL
Enterobacter cloacae [40]
  MBC: 8 µg/mL
Enterobacter cloacae [41]
  MBC: 2 µg/mL
Klebsiella aerogenes [42]
  MBC: 1 µg/mL
Pseudomonas aeruginosa [43]
  MBC: 4 µg/mL
Klebsiella pneumoniae [44]
  MBC: 2 µg/mL
Klebsiella pneumoniae [45]
  MIC: > 64 µg/mL
Klebsiella pneumoniae [46]
  MIC: 2 µg/mL (≈ 3.93 µM)

## C[C@@H](O)[C@H]1C(=O)N2C(C(=O)O)=C(S[C@@H]3CN[C@H](C(=O)N(C)C)C3)[C@H](C)[C@H]12 [MEROPENEM]
Escherichia coli [47]
  MIC: < 0.03 µg/mL
Klebsiella aerogenes [48]
  MIC: < 0.03 µg/mL
